In paper PMC4938718 (Structure (London, England : 1993), 2016):

What was measured:
[1] = biological target: T1, HisF subunit of imidazole glycerol phosphate synthase (IGPS) (Thermotoga maritima, UniProt Q9X0C6); test: NMR lineshape analysis of titration; assay type: binding
T1 sequence (Q9X0C6 1-253): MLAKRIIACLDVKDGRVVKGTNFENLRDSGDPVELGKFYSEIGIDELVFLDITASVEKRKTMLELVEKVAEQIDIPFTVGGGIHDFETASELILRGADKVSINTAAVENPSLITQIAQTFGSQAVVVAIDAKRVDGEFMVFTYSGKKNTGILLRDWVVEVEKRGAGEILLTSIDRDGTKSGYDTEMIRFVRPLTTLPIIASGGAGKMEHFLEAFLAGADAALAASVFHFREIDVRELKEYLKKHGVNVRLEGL
T1 sequence (Q9X0C8 1-201 partner): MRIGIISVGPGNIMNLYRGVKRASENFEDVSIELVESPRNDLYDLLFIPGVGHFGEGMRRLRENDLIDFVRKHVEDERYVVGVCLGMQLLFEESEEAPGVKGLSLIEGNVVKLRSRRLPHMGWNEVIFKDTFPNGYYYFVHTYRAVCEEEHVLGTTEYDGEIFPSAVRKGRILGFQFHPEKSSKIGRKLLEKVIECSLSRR

[2] = biological target: T2, HisH subunit of imidazole glycerol phosphate synthase (IGPS) (Thermotoga maritima, UniProt Q9X0C8); test: covalent labeling, loss of free Cys thiol confirmed by DTNB assay; assay type: binding
T2 sequence (Q9X0C8 1-201): T1 sequence (Q9X0C8 1-201 partner)
T2 sequence (Q9X0C6 1-253 partner): T1 sequence (Q9X0C6 1-253)

SMILES	Kd [1] [µM]	covalent labeling, loss of free Cys thiol confirmed by DTNB assay [2]
NC(=O)c1ncn([C@@H]2O[C@H](COP(=O)(O)O)[C@@H](O)[C@H]2O)c1N [AICAR]	1500 ± 200	–
N[C@H](C(=O)O)[C@@H]1CC(Cl)=NO1 [acivicin]	–	Covalent modification of IGPS with the non-hydrolyzable Gln analogue acivicin was achieved by incubating IGPS with two molar equivalents
